Tests used:
Experiment in all cases: relative viability (nuclei count vs DMSO), 5 days (fraction); higher = more cells survive
Ricolinostat + Olaparib = compound: O=C(CCCCCCNC(=O)c1cnc(N(c2ccccc2)c2ccccc2)nc1)NO [Ricolinostat] + O=C(c1cc(Cc2n[nH]c(=O)c3ccccc23)ccc1F)N1CCN(C(=O)C2CC2)CC1 [Olaparib] (partner 8 µM)
Procedure, shortened: (§1)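 The day after seeding in 1536-well plates, lung cancer cell lines were treated by pin tool with a single drug, or with a fixed anchor-drug dose together with five library-drug doses (not always all listed) in √10 steps. After 5 days, a combined fix-and-stain solution (final 0.05% Triton X-100, 1% formaldehyde, 1 ug/ml Hoechst) was added. Nuclei counted on 4× images gave relative viability as treated counts over vehicle counts, reported as the median of duplicate plates.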

[1] = compound: C1=CC=C(C(=C1)C2=CC=C(C=C2)C3=CSC4=C3C(=C(C(=O)N4)C#N)O)O + C[C@@H](Oc1cc(-c2cnn(C3CCNCC3)c2)cnc1N)c1c(Cl)ccc(F)c1Cl [Crizotinib] (partner 1 µM)
Procedure, shortened: as §1

[2] = compound: O=C(CCCCCCNC(=O)c1cnc(N(c2ccccc2)c2ccccc2)nc1)NO [Ricolinostat] + CC1(C)CCC(c2ccc(Cl)cc2)=C(CN2CCN(c3ccc(C(=O)NS(=O)(=O)c4ccc(N[C@H](CCN5CCOCC5)CSc5ccccc5)c(S(=O)(=O)C(F)(F)F)c4)cc3)CC2)C1 [Navitoclax] (partner 0.5 µM)
Procedure, shortened: as §1

[3] = compound: C1=CC=C(C(=C1)C2=CC=C(C=C2)C3=CSC4=C3C(=C(C(=O)N4)C#N)O)O + O=C(CCCCCCC(=O)Nc1ccccc1)NO [Vorinostat] (partner 1 µM)
Procedure, shortened: as §1

Cell Line	relative viability (Ricolinostat + Olaparib; first compound 0.08 µM)	relative viability (Ricolinostat + Olaparib; first compound 0.253 µM)	relative viability (Ricolinostat + Olaparib; first compound 0.8 µM)	relative viability (Ricolinostat + Olaparib; first compound 2.53 µM)	relative viability ([1]; first compound 0.08 µM)	relative viability ([1]; first compound 0.253 µM)	relative viability ([1]; first compound 0.8 µM)	relative viability ([1]; first compound 2.53 µM)	relative viability ([1]; first compound 8 µM)	relative viability ([2]; first compound 0.08 µM)	relative viability ([2]; first compound 0.253 µM)	relative viability ([2]; first compound 0.8 µM)	relative viability ([2]; first compound 2.53 µM)	relative viability ([3]; first compound 0.08 µM)	relative viability ([3]; first compound 0.253 µM)	relative viability ([3]; first compound 0.8 µM)	relative viability ([3]; first compound 2.53 µM)	relative viability ([3]; first compound 8 µM)
NCI-H3122	0.571	0.618	0.54	0.55	0.317	0.34	0.248	0.271	0.302	0.918	0.984	1.07	1.14	1	0.992	1.14	1.09	0.89
HCC-15	0.669	0.57	0.64	0.59	0.696	0.885	0.855	0.886	0.692	0.649	0.75	0.767	0.616	0.861	0.954	0.869	0.905	0.725
LU99A	0.281	0.255	0.206	0.175	0.52	0.524	0.598	0.616	0.527	0.782	0.701	0.603	0.491	0.501	0.478	0.702	0.49	0.425
UMC-11	0.345	0.339	0.323	0.198	0.547	0.506	0.574	0.487	0.622	0.31	0.343	0.267	0.158		0.352	0.409	0.381	0.412
